Data: US20080207859A1, “F[…] LOW RESIDUAL AMOUNT OF F[…] PROCESS FOR ITS PRODUCTION” (Asahi Glass Company, Limited, priority 2005, published 2008)

Experiment: Measurement of 1-octanol/water partition coefficient (LogPOW) by HPLC, OECD Test Guideline 117
Format: physicochemical
Settings: for LogPOW (1-octanol/water partition coefficient): HPLC method, OECD Test Guideline 117, calculated from elution time via calibration curve of standard carboxylic acids, column temperature 40° C.; for bioaccumulation potential (judged from LogPOW value compared to APFO): inferred from LogPOW relative to APFO
Procedure: In accordance with OECD Test Guideline 117, 1-octanol/water partition coefficient (LogPOW) of a fluorinated emulsifier was measured by using HPLC (high performance liquid chromatography).
Conditions for the measurement were as follows:
column: TOSOH ODS-120T column (φ4.6 mm×250 mm), eluent: acetonitrile/0.6 mass % of HClO4 aqueous solution=1/1 (vol/vol %), flow rate: […], sample amount: 300 μL, column temperature: 40° C., and detection light: UV 210 nm (WO2005-42593).
HPLC was carried out on standard substances (heptanoic acid, octanoic acid, nonanoic acid and decanoic acid) having known 1-octanol/water partition coefficients, and a calibration curve was prepared from the respective elution times and octanol/water partition coefficients of the respective standard substances. Based on this calibration curve, a value of partition coefficient (LogPOW) between 1-octanol and water was calculated from the elution time by HPLC of the fluorinated emulsifier.

Row | SMILES | LogPOW (1-octanol/water partition coefficient) | bioaccumulation potential (judged from LogPOW value compared to APFO)
1 | N.O=C(O)C(F)(F)OC(F)(F)C(F)(F)OC(F)(F)C(F)(F)F [CF3CF2OCF2CF2OCF2COONH4] | 3.13 | low
2 | N.O=C(O)C(F)(F)C(F)(F)C(F)(F)C(F)(F)C(F)(F)C(F)(F)C(F)(F)F [CF3(CF2)6COONH4, ammonium perfluorooctanoate] | 3.67 | –
3 | N.O=C(O)C(F)(OC(F)(F)C(F)(OC(F)(F)C(F)(F)F)C(F)(F)F)C(F)(F)F (centres unmarked) [CF3CF2OCF(CF3)CF2OCF(CF3)COONH4] | 4.03 | high
